Test systems include UACC-62 melanoma; SK-OV-3 ovarian; NCI-H460 lung; CAKI-1 renal; HOP-62 NSCLC; HCC-2998 colon; OVCAR-5 ovarian; UO-31 renal; A498 renal; U251 CNS.
Common to all, as to assay: inhibition of tumour cell growth, NCI panel, 48 h

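Test compounds were applied to cells in 96-well plates for 48 hours at 5 doses. The concentration for 50% growth inhibition is given as GI50. At the TGI there is no net growth.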 A value given as a limit tells only on which side of the number the result lay.

Consider `Cc1ccc(C2=C(c3ccc(C)cc3)C3(c4ccc(C)cc4)C4C(=O)c5ccccc5C(=O)C4C2(c2ccc(C)cc2)S3=O)cc1` (stereo not given), for which the GI50 with UACC-62 melanoma is greater than 100 µM; in the test on SK-OV-3 ovarian it was greater than 100 µM; with NCI-H460 lung it was greater than 100 µM; in the test with CAKI-1 renal, greater than 100 µM; in the test with HOP-62 NSCLC, 73.7 µM; with HCC-2998 colon, greater than 100 µM. Also, the GI50 with OVCAR-5 ovarian was greater than 100 µM; in the test on UO-31 renal, greater than 100 µM; in the test on A498 renal, greater than 100 µM; in the test with U251 CNS, 63 µM. Moreover, the TGI in the test on UACC-62 melanoma, in the test with SK-OV-3 ovarian, in the test with NCI-H460 lung, with CAKI-1 renal, in the test with HOP-62 NSCLC and in the test with HCC-2998 colon was greater than 100 µM each time. Further, the TGI with OVCAR-5 ovarian, in the test with UO-31 renal, in the test on A498 renal and with U251 CNS was greater than 100 µM in each case.
As for `O=C(O)CCc1c2ccc(=O)c(O)c-2oc2c(O)c(O)ccc12`, the TGI in the test with UACC-62 melanoma, with SK-OV-3 ovarian, in the test on NCI-H460 lung, in the test on CAKI-1 renal, in the test with HOP-62 NSCLC and in the test with HCC-2998 colon was greater than 100 µM throughout. In addition, the TGI in the test with OVCAR-5 ovarian, with UO-31 renal, with A498 renal and in the test on U251 CNS was greater than 100 µM each time.
For `COc1ccc2c(c1)CC1c3c(ccc(OC)c3O)CC2N1C` (stereo not given), the TGI is greater than 100 µM in the test with UACC-62 melanoma; greater than 100 µM in the test on SK-OV-3 ovarian; 38.8 µM with NCI-H460 lung; greater than 100 µM in the test with CAKI-1 renal; greater than 100 µM in the test on HOP-62 NSCLC; 30.8 µM with HCC-2998 colon. Also, the TGI was greater than 100 µM in the test with OVCAR-5 ovarian, greater than 100 µM with UO-31 renal, greater than 100 µM with A498 renal and greater than 59.3 µM in the test on U251 CNS.
With `CCc1cc2ncc(CN3CCN(c4ccc(C(=O)NC)nc4)CC3)cc2[nH]c1=O`, the GI50 was 39.2 µM with UACC-62 melanoma; greater than 100 µM with SK-OV-3 ovarian; 33.5 µM in the test with NCI-H460 lung; 24.2 µM in the test with CAKI-1 renal; 55.7 µM in the test on HOP-62 NSCLC; 87.9 µM in the test with HCC-2998 colon. Moreover, the GI50 in the test with OVCAR-5 ovarian was greater than 100 µM; in the test on UO-31 renal it was 29.5 µM; with A498 renal, greater than 100 µM; in the test on U251 CNS it was greater than 100 µM. For the same compound, the TGI in the test with UACC-62 melanoma, with SK-OV-3 ovarian, in the test with NCI-H460 lung, in the test on CAKI-1 renal, in the test on HOP-62 NSCLC and with HCC-2998 colon was greater than 100 µM each time. Besides, the TGI in the test with OVCAR-5 ovarian, with UO-31 renal, in the test on A498 renal and in the test on U251 CNS was greater than 100 µM in each case.
On to `O=c1c(Br)cc2c(-c3ccccc3)c3cc(Br)c(O)c(Br)c3oc-2c1Br`, for which the TGI in the test on UACC-62 melanoma, in the test with SK-OV-3 ovarian, with NCI-H460 lung, with CAKI-1 renal, in the test with HOP-62 NSCLC and with HCC-2998 colon was greater than 100 µM in each case. Moreover, the TGI in the test on OVCAR-5 ovarian, with UO-31 renal, in the test on A498 renal and in the test with U251 CNS was greater than 100 µM each time.
On to `CC1(C)C=N[N+]2(C)C3C=CC(CC3)C12` (stereo not given), for which the TGI in the test on UACC-62 melanoma, with SK-OV-3 ovarian, with NCI-H460 lung, in the test on CAKI-1 renal, in the test with HOP-62 NSCLC and in the test with HCC-2998 colon was greater than 100 µM each time. Besides, the TGI with OVCAR-5 ovarian, with UO-31 renal, with A498 renal and in the test on U251 CNS was greater than 100 µM in each case.
On to `O=C(CC1(O)C(=O)Nc2ccccc21)c1ccc(O)cc1` (stereo not given), for which the TGI in the test with UACC-62 melanoma, with SK-OV-3 ovarian, in the test on NCI-H460 lung, with CAKI-1 renal, in the test with HOP-62 NSCLC and in the test on HCC-2998 colon was greater than 100 µM each time. Besides, the TGI in the test with OVCAR-5 ovarian, in the test with UO-31 renal, in the test with A498 renal and in the test with U251 CNS was greater than 100 µM each time.
On to `CC(=O)[CH-]C(=O)c1ccccc1.CC(=O)[CH-]C(=O)c1ccccc1.Cl.[O-]c1ccccn1.[O-]c1ccccn1.[Ti+4]`, for which the GI50 in the test with UACC-62 melanoma, in the test on SK-OV-3 ovarian, in the test on NCI-H460 lung, in the test with CAKI-1 renal, in the test with HOP-62 NSCLC and in the test on HCC-2998 colon was greater than 100 µM in each case. Besides, the GI50 in the test on OVCAR-5 ovarian, with UO-31 renal, with A498 renal and in the test on U251 CNS was greater than 100 µM each time. Also, the TGI in the test on UACC-62 melanoma, with SK-OV-3 ovarian, with NCI-H460 lung, in the test on CAKI-1 renal, in the test with HOP-62 NSCLC and with HCC-2998 colon was greater than 100 µM in each case. Further, the TGI in the test on OVCAR-5 ovarian, in the test with UO-31 renal, in the test with A498 renal and with U251 CNS was greater than 100 µM each time.
`CCOC(=O)C1=C(C)N(NC(N)=O)C(C)(O)C12CCOC2=O` (stereo not given): the TGI with UACC-62 melanoma, in the test on SK-OV-3 ovarian, in the test on NCI-H460 lung, with CAKI-1 renal, in the test with HOP-62 NSCLC and with HCC-2998 colon was greater than 100 µM throughout. Further, the TGI in the test with OVCAR-5 ovarian, with UO-31 renal, in the test on A498 renal and in the test with U251 CNS was greater than 100 µM in each case.
Turning to `CCOC(=N)CC(=O)Nc1cccc(Cl)c1`, the TGI with UACC-62 melanoma, with SK-OV-3 ovarian, with NCI-H460 lung, in the test on CAKI-1 renal, in the test with HOP-62 NSCLC and with HCC-2998 colon was greater than 100 µM throughout. Besides, the TGI in the test on OVCAR-5 ovarian, in the test on UO-31 renal, with A498 renal and with U251 CNS was greater than 100 µM each time.
